Test results reported in patent US6689808B2, “Substituted phthalides, a process for their preparations and pharmaceutical compositions containing them” (Les Laboratoires Servier, priority 2000, dated 2004).

| melting point | SMILES |
| --- | --- |
| 124 to 125 °C | CCCCCCCCC1OC(=O)c2cc(N)ccc21 (stereo not drawn) [Example 6, 6-Amino-3-octyl-phthalide] |
| 135 to 137 °C | CCCCCCC1OC(=O)c2cc(NC(C)=O)ccc21 (stereo not drawn) [Example 8, 6-Acetamido-3-hexyl-phthalide] |
| 133 to 134 °C | CCCCCCCCC1OC(=O)c2cc(NC(C)=O)ccc21 (stereo not drawn) [Example 9, 6-Acetamido-3-octyl-phthalide] |
| 183 to 185 °C | CCCCC1OC(=O)c2cc(NC(N)=S)ccc21 (stereo not drawn) [Example 21, 3-Butyl-6-thioureido-phthalide] |
| 98.5 to 100 °C | CCC1(CC)OC(=O)c2cc([N+](=O)[O-])ccc21 [Example 24, 3,3-Diethyl-6-nitro-phthalide] |
| 153 to 154 °C | CCC1(CC)OC(=O)c2cc(N)ccc21 [Example 25, 6-Amino-3,3-diethyl-phthalide] |
